Laboratory results: article PMC2532997, “Methoxylation enhances stilbene bioactivity in Caenorhabditis elegans” (BMC Pharmacology, 2008)

What was measured:
cytochrome P450 2E1 = test system: cytochrome P450 2E1; design: method as in PMID 16684708; conditions: cited from earlier work
[1] = test system: gld-1(q485) germline tumors; assay: Germline tumor growth assay (DAPI-stained tumor area); type: in vivo, Caenorhabditis elegans; conditions: for effect on tumor size (in words): 100 μM dose
Description: To assess the effects of methoxylation on antitumor activity in vivo, tumor area was measured in gld-1(q485) adults treated for four days with either resveratrol trimethylether, desoxyrhapontigenin or pterostilbene, which are methoxylated and toxic to adults, or resveratrol, which is hydroxylated and nontoxic. As controls, germline tumor area was also measured in animals treated with carrier only (ethanol) or with 5-fluoro-2'-deoxyuradine (FUDR), a thymidylate synthetase inhibitor that blocks cell proliferation. […] After four days of treatment, animals were collected and germline tumors were visualized by DAPI staining to visualize germcell nuclei. Because the level of DAPI staining was not quantitative between animals, we DAPI signal intensity was not used as a measure of tumor size. Rather, tumor size was directly measured as the area of the DAPI-stained gonad.
(§1) Resveratrol and picetannol were obtained from commercial sources (Sigma-Aldrich, Inc. and Calbiochem-Novobiochem Corp., respectively). The methoxylated stilbenes pinostilbene, desoxyrhapontigenin, 3-hydroxy-5,4'-dimethoxystilbene and pterostilbene (Figure 1) were synthesized by partial methylation of trans-resveratrol as previously reported. The methoxylated stilbenes were purified by preparative layer chromatography (Merck Silica gel 60 F254; EMD Chemicals Inc., Gibbstown, NJ) using the developing solvent chloroform:methanol (96:4) with 1% formic acid. The Rf values for pterostilbene, 3-hydroxy-5,4'-dimethoxystilbene, pinostilbene and desoxyrhapontigenin are 0.61, 0.57, 0.28, and 0.20, respectively. These stilbenes were identified from their ^1H-NMR spectra (Bruker 400 MHz; Bruker, Billerica, MA). All stilbenes were dissolved in ethanol to 25 mg/mL before use. 5-Fluoro-deoxyuracil (Sigma Chemical Co.) was dissolved to 1 mg/mL in sterile water and stored frozen at -20°C until use. For treating C. elegans adults, each compound was added in a 200 μL volume to the top of a 1-day old bacterial lawn grown on NGM medium to final concentrations as indicated. Compounds were allowed 2 hours to diffuse through the agar medium before animals were added.
The gld-1(q485) mutation causes a defect in oocyte development that results in growth of germline tumors that fill the somatic gonad, eventually leading to the animal's death. To examine the effects of the stilbenes on gld-1(q485) germline tumors, day 0 adults were placed on stilbene-containing medium in the presence of OP50 bacteria as food source. After 4 days at 20°C, animals were fixed in methanol and germcell nuclei were visualized by staining with DAPI. Images were collected with the entire animal in view using the 4× objective on a Nikon E800 microscope equipped with a Hamamatsu Orca ER CCD camera using OpenLab imaging software. NIH Image J software was used to measure germline tumor growth in treated and untreated animals. Tumor area was measured by outlining the entire DAPI-stained tumor.

[2] = test system: C. elegans fem-1(hc17) sterile adults; assay: Adult survival assay of sterile fem-1(hc17) adults on compound-supplemented medium; type: in vivo, Caenorhabditis elegans
Description: For survival assays, young adult (day 0) animals were transferred onto fresh medium supplemented with the test compound at a range of concentrations. The compounds were tested at indicated concentrations in the growth medium (below). C. elegans nematodes are surrounded by a thick collagenous cuticle and are therefore relatively impermeable to environmental compounds. […] Survival was scored every 2–3 days as the ability to move in response to a gentle mechanical stimulus. During the first week of adulthood, C. elegans hermaphrodites are reproductively competent and normally produce 200–300 progeny. Since progeny production would complicate survival analysis, these experiments were performed using fem-1(hc17) animals that are sterile due to a spermatogenesis defect.
as §1, with “The Rf values for pterostilbene, 3-hydroxy-5,4'-dimethoxystilbene, pinostilbene and desoxyrhapontigenin are 0.61, 0.57, 0.28, and 0.20, respectively.” left out
For survival analyses, synchronized populations of sterile fem-1(hc17) hermaphrodites were obtained by first transferring several fertile hermaphrodites to a fresh plate at 25°C and allowing them to lay eggs for several hours. The parent hermaphrodites were removed and embryos were allowed to develop into sterile adults at 25°C, which takes approximately 48 hours. On the first day of adulthood, referred to as day 0, sterile adults were transferred onto fresh media supplemented with stilbenes at indicated concentrations, and maintained at 25°C. Adult survival was scored every 2–3 days by the animal's ability to move in response to a gentle mechanical stimulus. Statistical analysis of survival was performed using the JMP software package.

[3] = Trial 1, 100 μM in medium, from day 0 of adulthood, 25°C, control 12.16 days
[4] = Trial 1, 100 μM, treated vs control mean lifespan
[5] = Trial 3, 100 μM, control 15.37 days
[6] = Trial 3, 200 μM, control 15.37 days
[7] = Trial 4, 20 μM, control 11.26 days
[8] = Trial 4, 40 μM, control 11.26 days
[9] = Trial 4, 100 μM, control 11.26 days
[10] = Trial 6, 20 μM, control 15.32 days
[11] = Trial 6, 40 μM, control 15.32 days
[12] = Trial 6, 100 μM, control 15.32 days
[13] = Trial 2, 20 μM, control 11.05 days
[14] = Trial 2, 40 μM, control 11.05 days

Compound | inhibition of catalytic activity of cytochrome P450 2E1 (in words) (cytochrome P450 2E1) | effect on tumor size (in words) ([1]; four days treatment) | Mean lifespan, Treated [2, 3] [days] | Relative survival [2, 4] [%] | Relative survival ([2]; Trial 3, 100 μM) [%] | Mean lifespan, Treated [2, 5] [days] | Relative survival ([2]; Trial 3, 200 μM) [%] | Mean lifespan, Treated [2, 6] [days] | Relative survival ([2]; Trial 4, 20 μM) [%] | Mean lifespan, Treated [2, 7] [days] | Relative survival ([2]; Trial 6, 20 μM) [%] | Mean lifespan, Treated [2, 10] [days] | Relative survival ([2]; Trial 6, 40 μM) [%] | Mean lifespan, Treated [2, 11] [days] | Relative survival ([2]; Trial 6, 100 μM) [%] | Mean lifespan, Treated [2, 12] [days] | Relative survival ([2]; Trial 2, 20 μM) [%] | Mean lifespan, Treated [2, 13] [days] | Relative survival ([2]; Trial 2, 40 μM) [%] | Mean lifespan, Treated [2, 14] [days] | other results
COc1ccc(/C=C/c2cc(O)cc(O)c2)cc1 [Desoxyrhapontigenin, desoxyrhapontigenin] | not inhibitory | consistent reductions in tumor size | 10.64 | 88 | 74 | 11.31 | 76 | 11.61 | 91 | 10.2 | 93 | 14.18 | 100 | 15.31 | 89 | 13.63 | – | – | – | – | Relative survival ([2]; Trial 4, 40 μM): 92%; Mean lifespan, Treated [2, 8]: 10.38 days; Relative survival ([2]; Trial 4, 100 μM): 84%; Mean lifespan, Treated [2, 9]: 9.44 days
COc1cc(O)cc(/C=C/c2ccc(O)cc2)c1 [Pinostilbene, pinostilbene] | moderately inhibited | – | 13.6 | 112 | 110 | 16.9 | 99 | 15.23 | – | – | 93 | 14.24 | 113 | 17.33 | 106 | 16.24 | 91 | 10.04 | 104 | 11.53 | –
COc1ccc(C=Cc2cc(O)cc(OC)c2)cc1 [3-OH-5,4'-dimethoxystilbene, 3-hydroxy-5,4'-dimethoxystilbene] | – | – | 6.34 | 52 | – | – | – | – | – | – | 68 | 10.38 | 50 | 7.68 | 43 | 6.56 | 100 | 11.05 | 95 | 10.52 | –
Oc1ccc(/C=C/c2cc(O)cc(O)c2)cc1 [Resveratrol, resveratrol, reference compound] | – | – | 12.18 | 100 | 108 | 16.64 | 111 | 17 | – | – | 96 | 14.65 | 106 | 16.17 | 115 | 17.55 | 107 | 11.85 | 95 | 10.53 | effect on germline tumor size vs untreated ([1]; 100 μM in growth medium, four days treatment, FUDR values are single trials): -4%; effect on tumor area (in words) ([1]; 200 and 400 μM dose, three trials): not associated with statistically significant reductions in tumor area
Oc1cc(O)cc(/C=C/c2ccc(O)c(O)c2)c1 [Piceatannol, piceatannol, reference compound] | – | – | – | – | 116 | 17.78 | 114 | 17.5 | – | – | 89 | 13.71 | 102 | 15.63 | 108 | 16.6 | 106 | 11.72 | 105 | 11.58 | –
COc1cc(/C=C/c2ccc(O)cc2)cc(OC)c1 [Pterostilbene, pterostilbene] | – | modestly reduced tumor size | 9.55 | 79 | – | – | – | – | 93 | 10.43 | 90 | 13.72 | 94 | 14.41 | 72 | 10.98 | – | – | – | – | Relative survival ([2]; Trial 4, 40 μM): 89%; Mean lifespan, Treated [2, 8]: 10 days; Relative survival ([2]; Trial 4, 100 μM): 72%; Mean lifespan, Treated [2, 9]: 8.07 days
